The structures appear in SMILES notation.

This assay addresses T1, human AHR (Homo sapiens, UniProt P35869).
T1 construct: endogenous in cells; host or cells: unnamed human cells carrying an AHR-dependent luciferase reporter
T1 sequence (P35869 11-848): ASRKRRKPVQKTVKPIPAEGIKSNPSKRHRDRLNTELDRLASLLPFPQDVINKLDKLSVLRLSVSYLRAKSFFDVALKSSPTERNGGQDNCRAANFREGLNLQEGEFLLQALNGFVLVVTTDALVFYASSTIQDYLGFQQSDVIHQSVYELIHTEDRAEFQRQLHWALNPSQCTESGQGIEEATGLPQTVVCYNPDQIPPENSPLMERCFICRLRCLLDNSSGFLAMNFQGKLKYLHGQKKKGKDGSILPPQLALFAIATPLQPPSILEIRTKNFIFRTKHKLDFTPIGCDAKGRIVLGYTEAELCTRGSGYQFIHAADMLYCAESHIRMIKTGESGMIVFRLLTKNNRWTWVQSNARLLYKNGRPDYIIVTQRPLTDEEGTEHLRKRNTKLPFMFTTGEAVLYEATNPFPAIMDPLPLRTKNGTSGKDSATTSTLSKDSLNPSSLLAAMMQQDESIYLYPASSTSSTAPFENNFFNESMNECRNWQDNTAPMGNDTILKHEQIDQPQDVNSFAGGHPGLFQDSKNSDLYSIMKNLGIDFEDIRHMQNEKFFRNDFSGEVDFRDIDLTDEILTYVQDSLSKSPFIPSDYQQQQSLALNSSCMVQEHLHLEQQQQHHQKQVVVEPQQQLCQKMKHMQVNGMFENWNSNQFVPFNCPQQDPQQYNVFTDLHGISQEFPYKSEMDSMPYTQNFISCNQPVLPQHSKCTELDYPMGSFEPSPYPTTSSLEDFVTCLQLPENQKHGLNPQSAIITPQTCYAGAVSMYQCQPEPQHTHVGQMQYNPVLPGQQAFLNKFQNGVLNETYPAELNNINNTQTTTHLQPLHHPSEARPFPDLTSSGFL
Description: cell-based. Type of assay: cell-based. The method, then:
Further, the ability of Example 1 to block 2,3,7,8-tetrachlorodibenzo-p-dioxin (TCDD, dioxin)-mediated CYP1B1 mRNA expression by qPCR in mPB-derived CD34^+ cells was determined. Treatment with TCDD (3 nM) caused a 4.5-fold increase in the level of CYP1B1 mRNA compared with the vehicle control (0.01% toluene). […] To determine the effects of Example 1 in AHR transcription the ability of Example 1 to inhibit a dioxin-induced AHR dependent luciferase reporter gene assay was tested.

By EC50 is commonly meant the concentration giving half of the maximal effect. For `CC(C)n1cnc2c(NCCc3ccc(O)cc3)nc(-c3csc4ccccc34)nc21` [Example 1, 4-(2-(2-(benzo[b]thiophen-3-yl)-9-isopropyl-9H-purin-6-ylamino)ethyl)phenol], a half-maximal effect (EC50) was put at 127 nM. Besides, for the setting “1 μM, cells expressing human AHR”, the “dioxin-induced AHR dependent transcription” value is on record as “completely abolished”. In addition, the “agonist activity (induction of AHR dependent transcription)” value (human cells) was “failed to induce AHR dependent transcription”.

The values above are taken from patent US9580426B2, “Compounds that expand hematopoietic stem cells” (Novartis AG, priority 2008, dated 2017).
